Reference: ChEMBL document CHEMBL3259560, “Synthesis of xanthone derivatives based on α-mangostin and their biological evaluation for anti-cancer agents” (Bioorg Med Chem Lett, 2014)
≈ marks a conversion by molar mass, not a printed value.

How the values were obtained:
[1] = Kinetic solubility of the compound in water containing 5% DMSO at pH 6.8; assay type: physicochemical; settings: read-out: Kinetic_solubility
[2] = tested on: ASPC1; test: Cytotoxicity against human AsPC1 cells assessed as inhibition of cell proliferation after 48 hrs by XTT assay; assay type: functional, cell-based; settings: ASPC1, 48 h
[3] = tested on: SW-620; test: Cytotoxicity against human SW620 cells assessed as inhibition of cell proliferation after 48 hrs by XTT assay; assay type: functional, cell-based; settings: SW-620, 48 h
[4] = tested on: NCI-H460; test: Cytotoxicity against human NCI-H460 cells assessed as inhibition of cell proliferation after 48 hrs by XTT assay; assay type: functional, cell-based; settings: NCI-H460, 48 h
[5] = tested on: MDA-MB-231; test: Cytotoxicity against human MDA-MB-231 cells assessed as inhibition of cell proliferation after 48 hrs by XTT assay; assay type: functional, cell-based; settings: MDA-MB-231, 48 h
[6] = Cytotoxicity against mouse B16F10 cells assessed as inhibition of cell proliferation after 48 hrs by XTT assay; assay type: functional, cell-based; settings: B16-F10, 48 h

SMILES | solubility kinetic [1] | IC50 ([2]; read-out: IC50) | IC50 [3] | IC50 [4] | IC50 [5] | IC50 [6] | IC50 [2]
CC(C)=CCc1c(O)cc2oc3cc(O)c(O)c(CC=C(C)C)c3c(=O)c2c1O | 94 µM (≈ 37.3 µg/mL) | 5.92 µM | 5.69 µM | 4.48 µM | 5.87 µM | – | –
COc1c(OC(C)=O)cc2oc3cc(O)c(CC=C(C)C)c(O)c3c(=O)c2c1CC=C(C)C | 148 µM (≈ 67 µg/mL) | 13.9 µM | 10.9 µM | 12.6 µM | 12.9 µM | 13.1 µM | –
COc1c(OCC(=O)O)cc2oc3cc(O)c(CC=C(C)C)c(O)c3c(=O)c2c1CC=C(C)C | – | 52.8 µM | 46.6 µM | 54.6 µM | > 100 µM | 28.6 µM | –
COc1c(OCC(=O)O)cc2oc3cc(OCC(=O)O)c(CC=C(C)C)c(O)c3c(=O)c2c1CC=C(C)C | – | > 100 µM | > 100 µM | > 100 µM | > 100 µM | 95.8 µM | –
C=CCOc1cc2oc3cc(O)c(CC=C(C)C)c(O)c3c(=O)c2c(CC=C(C)C)c1OC | 149 µM (≈ 67.1 µg/mL) | 21.3 µM | 12.1 µM | 12.2 µM | 17.9 µM | 16.5 µM | –
COc1c(OS(=O)(=O)C(F)(F)F)cc2oc3cc(OS(=O)(=O)C(F)(F)F)c(CC=C(C)C)c(O)c3c(=O)c2c1CC=C(C)C | – | 13.8 µM | 9.01 µM | 22.4 µM | 16.9 µM | 15.3 µM | –
C=CCOc1cc2oc3cc(OC)c(CC=C(C)C)c(O)c3c(=O)c2c(CC=C(C)C)c1OC | – | > 100 µM | > 100 µM | > 100 µM | > 100 µM | > 100 µM | –
C=CCOc1cc2oc3cc(OCC=C)c(OC)c(CC=C(C)C)c3c(=O)c2c(OC)c1CC=C(C)C | – | 25.8 µM | 44.6 µM | 14.6 µM | 28 µM | 41 µM | –
COc1c(O)cc2oc3cc(O)c(CC=C(C)C)c(OC)c3c(=O)c2c1CC=C(C)C | 104 µM (≈ 44.1 µg/mL) | 13.9 µM | 18.2 µM | 10.8 µM | 20.8 µM | 16.6 µM | –
COc1ccc2oc3cc(O)c(CCC(C)C)c(O)c3c(=O)c2c1CCC(C)C | – | > 100 µM | > 100 µM | > 100 µM | > 100 µM | > 100 µM | –
COc1ccc2oc3ccc(CCC(C)C)c(O)c3c(=O)c2c1CCC(C)C | – | > 100 µM | > 100 µM | > 100 µM | > 100 µM | > 100 µM | –
COc1c(N)cc2oc3ccc(CCC(C)C)c(O)c3c(=O)c2c1CCC(C)C | 138 µM (≈ 54.9 µg/mL) | 31.3 µM | 15.9 µM | 17.6 µM | 30.9 µM | 14.4 µM | –
COc1c(O)cc2oc3cc(O)c(CCC(C)C)c(O)c3c(=O)c2c1CCC(C)C | 78 µM (≈ 32.3 µg/mL) | 4.64 µM | 6.42 µM | 4.17 µM | 4.91 µM | 6.54 µM | –
COc1c(O)cc2oc3c([N+](=O)[O-])c(O)c(CCC(C)C)c(O)c3c(=O)c2c1CCC(C)C | 339 µM (≈ 156 µg/mL) | 31.8 µM | 22.6 µM | 16.8 µM | 29 µM | – | –
COc1c(O)cc2oc3c(N)c(O)c(CCC(C)C)c(O)c3c(=O)c2c1CCC(C)C | – | 13 µM | 6.24 µM | 15.1 µM | 17.6 µM | 12.3 µM | –
COc1c(O)cc2oc3c(Cl)c(O)c(CCC(C)C)c(O)c3c(=O)c2c1CCC(C)C | 381 µM (≈ 171 µg/mL) | 19.3 µM | 9.59 µM | 9.96 µM | 10.1 µM | 12.4 µM | –
C#CCOc1c(O)cc2oc3cc(O)c(CC=C(C)C)c(O)c3c(=O)c2c1CC=C(C)C | – | > 100 µM | > 100 µM | > 100 µM | > 100 µM | – | –
CC(C)=CCc1c(O)cc2oc3cc(O)c(OCc4cn(CC(=O)OC(C)(C)C)nn4)c(CC=C(C)C)c3c(=O)c2c1O | – | > 100 µM | > 100 µM | > 100 µM | > 100 µM | – | –
C=CCOc1cc2oc3cc(OCC=C)c(OC)c(CC=C(C)C)c3c(=O)c2c(O)c1CC=C(C)C | – | > 100 µM | > 100 µM | > 100 µM | > 100 µM | > 100 µM | –
COc1c(O)cc2oc3cc4c(c(O)c3c(=O)c2c1CC=C(C)C)CCC(C)(C)O4 | – | > 100 µM | > 100 µM | > 100 µM | > 100 µM | > 100 µM | –
COc1c(OC(C)=O)cc2oc3cc(OC(C)=O)c(CC=C(C)C)c(O)c3c(=O)c2c1CC=C(C)C | 122 µM (≈ 60.3 µg/mL) | 14.2 µM | 22.7 µM | 12.5 µM | 17.4 µM | 15.1 µM | –
COc1cccc2c1C(=O)c1c(O)c3c(c(O)c1C2=O)C[C@@](O)(C(=O)CO)C[C@@H]3O[C@H]1C[C@H](N)[C@H](O)[C@H](C)O1 [DOXORUBICIN] | – | – | 0.12 µM | 0.08 µM | 0.98 µM | 0.12 µM | 1.87 µM
COc1c(O)cc2oc3cc4c(c(O)c3c(=O)c2c1CC=C(C)C)C=CC(C)(C)O4 [MANGOSTANIN] | – | 25.5 µM | 26.1 µM | 19.7 µM | 21.1 µM | 26.2 µM | –
COc1c(O)cc2oc3cc(O)c(CC=C(C)C)c(O)c3c(=O)c2c1CC=C(C)C [MANGOSTIN] | 20 µM (≈ 8.21 µg/mL) | 4.02 µM | 2.97 µM | 3.23 µM | 3.04 µM | 3.23 µM | –
